Test results from patent US20080032933A1, “Type V Phosphodiesterase Inhibitors and Natriuretic Polypeptides” (MAYO FOUNDATION FOR MEDICAL EDUCATION AND RESEARCH, priority 2005, published 2008).
Like-named read-outs stand apart in the source and are kept apart here. No end group written: not given here.

Experiments:
[1] = test system: male mongrel dogs with overt chronic heart failure produced by rapid ventricular pacing; experiment: Cardiorenal and neurohumoral profile on day 11 of pacing-induced CHF; type: in vivo, dog
Experimental: A model of pacing-induced overt chronic heart failure was used (Chen et al., Circulation, 100:2443-2448 (1999)). Briefly, all dogs underwent implantation of a programmable cardiac pacemaker (Medtronic, Minneapolis, Minn.). Under pentobarbital sodium anesthesia (30 mg/kg, intravenous) and artificial ventilation (Harvard respirator, Harvard Apparatus, Millis, Mass.) with 5 L/min supplemental oxygen, a left lateral thoracotomy and pericardiotomy were performed. With the heart exposed, a screw-in epicardial pacemaker lead was implanted into the right ventricle. The pacemaker generator was implanted subcutaneously into the left chest wall and connected to the pacemaker lead. Dogs received pre- and post-operative prophylactic antibiotic treatment with 225 mg clindamycin subcutaneously and 400,000 U procaine penicillin G plus 500 mg dihydrostreptomycin intramuscularly (Combiotic, Pfizer, Inc., New York, N.Y.). Post-operative prophylactic antibiotic was continued through the first two post-operative days. Dogs were fed a fixed sodium diet (58 mEq/day, Hill's ID) and allowed water ad lib. All dogs were walked daily. Appetite, activity, body temperature, and condition of surgical skin sites were documented. Following a 14-day post-operative recovery period, the pacemaker was turned on at 240 bpm. […]
(§1) Glomerular filtration rate (GFR) was measured by inulin clearance.
(§2) Results were expressed as mean ±SEM. […] GraphPad Prism software was used for the above calculation. Statistical significance was accepted as p<0.05.

[2] = test system: male mongrel dogs with overt chronic heart failure produced by rapid ventricular pacing; experiment: LV remodeling (echocardiography FS, CO, LV mass, plasma BNP) after 10 days of PDE V inhibitor in pacing-induced CHF; type: in vivo, dog
Experimental: A model of pacing-induced overt chronic heart failure was used (Chen et al., Circulation, 100:2443-2448 (1999)). Briefly, all dogs underwent implantation of a programmable cardiac pacemaker (Medtronic, Minneapolis, Minn.). Under pentobarbital sodium anesthesia (30 mg/kg, intravenous) and artificial ventilation (Harvard respirator, Harvard Apparatus, Millis, Mass.) with 5 L/min supplemental oxygen, a left lateral thoracotomy and pericardiotomy were performed. With the heart exposed, a screw-in epicardial pacemaker lead was implanted into the right ventricle. The pacemaker generator was implanted subcutaneously into the left chest wall and connected to the pacemaker lead. Dogs received pre- and post-operative prophylactic antibiotic treatment with 225 mg clindamycin subcutaneously and 400,000 U procaine penicillin G plus 500 mg dihydrostreptomycin intramuscularly (Combiotic, Pfizer, Inc., New York, N.Y.). Post-operative prophylactic antibiotic was continued through the first two post-operative days. Dogs were fed a fixed sodium diet (58 mEq/day, Hill's ID) and allowed water ad lib. All dogs were walked daily. Appetite, activity, body temperature, and condition of surgical skin sites were documented. Following a 14-day post-operative recovery period, the pacemaker was turned on at 240 bpm.
Echocardiography was carried out at baseline before the pacemaker was turned on and at day 10 of pacing to determine LV fractional shortening (FS). Echocardiographic images were obtained in the conscious dog standing in a minimally restraining sling. Simultaneous electrocardiography was obtained. The optimal images were generally obtained from the right lateral chest wall just above the sternum at the equivalent of the anterior axillary line. Images analogous to the para-sternal long axis and para-sternal short axis views (human echocardiography) were consistently obtained at the base, mid-ventricular, and para-apical levels. LV two-dimensional (2D) and M-mode images were obtained with a 2.5-MHz ultrasonic transducer (General Electric Systems Five). LV M-mode tracings were obtained under 2D guidance using the 2D short-axis views between the two papillary muscles just distal to the mitral valve leaflet tips. All images were obtained in sinus rhythm. Care was taken to ensure that the M-mode cursor transects the LV in the midline, that the LV image is “on axis” (LV is round, not oval indicating an image between short and long axes), and that the cursor is perpendicular to the LV wall detecting maximal LV thickening of both the septal and posterior walls. End-diastole was defined as the maximal LV diastolic diameter at the peak of the R wave on the EKG, and end-systole was defined as the peak of the LV posterior wall motion. M-mode measurements were made in accordance with the American Society of Echocardiography leading-edge convention using the steepest continuous endocardial echoes. Measurements included LV end-diastolic (LVDd), and end-systolic dimensions (LVDs) were averaged for average dimension. FS (%)=[(LVDd−LVSd)/LVDd]*100.
as §1
At the end of the acute experiment, the heart was harvested, and the LV was carefully dissected out and weighed to determine LV mass. The LV mass was divided by the body weight to give the LV mass/Kg body weight.
as §2

[3] = test system: male mongrel dogs with overt chronic heart failure produced by rapid ventricular pacing; experiment: Humoral, hemodynamic and renal response to acute SQ BNP on day 11 of pacing-induced CHF
Experimental: (§3) Studies were conducted in 2 groups of male mongrel dogs (18-23 kg) with overt chronic heart failure produced by rapid ventricular pacing at 240 beats per minute (bpm) for ten days on a fixed sodium diet. Group 1 (n=6) received Sildenafil (50 mg orally three times a day) during the 10 days of pacing and one dose an hour before the subcutaneous (SQ) administration of BNP on day 11. Group 2 (n=6) received no PDE V inhibitor, but did receive SQ BNP alone on day 11 of CHF.
(§4) Acute SQ BNP administration was performed as follows. On day 11 of rapid ventricular pacing at 240 bpm, an experiment was carried out to determine the cardiorenal and humoral function in both groups and also the response to acute SQ BNP administration (5 μg/kg). […] On the morning of the experiment, only group 1 received a final dose of Sildenafil 50 mg one hour before the dogs were anesthetized with sodium pentobarbital (15 mg/kg, i.v.), intubated, and mechanically ventilated with supplemental oxygen (Harvard respirator, Amersham, Millis, Mass.) at 20 cycles per minute. A flow-directed balloon-tipped thermodilution catheter (Ohmeda, Criticath, Madison, Wis.) was advanced into the pulmonary artery via the external jugular vein for cardiac hemodynamic measurement. The femoral artery was cannulated for blood pressure monitoring and blood sampling. The femoral vein was also cannulated for inulin and normal saline infusion. The left kidney was exposed via a flank incision, and the ureter was cannulated for urine collection. A calibrated electromagnetic flow probe was placed around the renal artery to measure renal blood flow (RBF).
(§5) The experiment began after a 60-minute equilibration period, with a 30-minute baseline urinary clearance. After the 30-minute baseline urinary clearance, SQ canine BNP 5 μg/kg was administered in the right hind leg. Following a 15-minute lead-in period, a 60-minute urinary clearance period was performed. Cardiovascular parameters measured during the acute experiment included mean arterial blood pressure (MAP), right atrial pressure (RAP), mean pulmonary arterial pressure (PAP), cardiac output (CO), and pulmonary capillary wedge pressure (PCWP). CO was determined by thermodilution in triplicate and averaged (Cardiac Output model 9510-A computer, American Edwards Laboratories, Irvine, Calif.). MAP was assessed via direct measurement from the femoral arterial catheter. Systemic vascular resistance (SVR) was calculated as [SVR=(MAP−RAP)/CO]. Inulin was administered intravenously at the start of the equilibration period as a calculated bolus, followed by a 1 mL/min continuous infusion to achieve plasma levels of 40-60 mg/dL. Glomerular filtration rate (GFR) was measured by inulin clearance.
(§6) Cardiovascular hemodynamics were measured at the start of each urinary clearance. Arterial blood was collected in heparin and EDTA tubes and immediately placed on ice midway through each clearance. After centrifugation at 2,500 rpm at 4° C., plasma was decanted and stored at −20° C. until analysis. Urine was collected on ice during the entire period of each clearance for assessment of urine volume, electrolytes, and inulin. Urine collected for cGMP analysis was heated to more than 90° C. before storage.
(§7) Plasma samples for BNP renin and angiotensin II were measured by radioimmunoassay (RIA) using methods described elsewhere (Chen et al., Circulation, 96:I-524 (1997)). Plasma and urinary samples for cGMP were measured by RIA using methods described elsewhere (Steiner et al., J. Biol. Chem., 247:1106-1113 (1972)). Urinary and plasma inulin concentrations were measured by the anthrone method (Davidson and Sachner, J. Lab. Clin. Med., 62:351-356 (1963)).

[4] = test system: male mongrel dogs with overt chronic heart failure produced by rapid ventricular pacing; settings: dog, in vivo
Experimental: as §3, §4, §5, §6, §7

[5] = Sildenafil 50 mg orally three times a day for 10 days of pacing, mean ± SE
[6] = Sildenafil 50 mg orally three times a day for 10 days, P < 0.05 versus Untreated
[7] = 10 days of treatment, compared to the untreated group (FIG. 1)
[8] = chronic administration in experimental overt CHF
[9] = PDE V inhibitor-treated group, Baseline (before SQ BNP)
[10] = PDE V inhibitor-treated group, SQ BNP (FIG. 2)
[11] = PDE V inhibitor-treated group, after SQ BNP
[12] = PDE V inhibitor-treated group, after SQ canine BNP 5 μg/kg (combination)
[13] = Untreated CHF group (no PDE V inhibitor), after SQ canine BNP 5 μg/kg alone
[14] = untreated group (no PDE V inhibitor), SQ BNP alone (FIG. 2)

CCCc1nn(C)c2c(=O)[nH]c(-c3cc(S(=O)(=O)N4CCN(C)CC4)ccc3OCC)nc12 [PDE V inhibitor, Sildenafil]
MAP [1, 5]: 110 ± 4 mmHg
PAP [1, 5]: 27 ± 1 mmHg
PCWP [1, 5]: 23 ± 1 mmHg
RAP [1, 5]: 11 ± 1 mmHg
RBF [1, 5]: 160 ± 21 mL/min
UNaV [1, 5]: 2 ± 1 μEq/min
UV [1, 5]: 0.12 ± 0.01 mL/min
Plasma cGMP [1, 6]: 43 ± 2 pmol/mL
Urinary cGMP [1, 6]: 4219 ± 900 pmol/min
GFR ([1]; Sildenafil 50 mg orally three times a day for 10 days, inulin clearance): 30 ± 5 mL/min
CO (cardiac output) [2, 7]: improvement
LV FS (fractional shortening) [2, 7]: improvement
LV mass [2, 7]: reduction in LV mass
plasma BNP levels [2, 7]: strong trend for plasma BNP levels to be lower
LV remodeling [2, 8]: improved LV remodeling
MAP [3, 9]: 110 ± 4
PAP [3, 9]: 27 ± 1
PCWP [3, 9]: 23 ± 1
Plasma Ang II [3, 9]: 124 ± 2
Plasma Renin [3, 9]: 16 ± 2
Plasma cGMP [3, 9]: 43 ± 2 pmol/mL
RAP [3, 9]: 11 ± 1
Urinary cGMP Excretion [3, 9]: 4219 ± 900 fmol/min
GFR change with SQ BNP [3, 10]: increase in GFR
PTFNa change with SQ BNP [3, 10]: decreased significantly
UNaV change with SQ BNP [3, 10]: increased
CO with SQ BNP [3, 11]: unchanged
plasma BNP levels with SQ BNP [3, 11]: increased similarly
MAP [3, 12]: 103 ± 7
PAP [3, 12]: 23 ± 1
PCWP [3, 12]: 18 ± 1
Plasma Ang II [3, 12]: 37 ± 2
Plasma Renin [3, 12]: 9 ± 2
Plasma cGMP [3, 12]: 46 ± 3 pmol/mL
RAP [3, 12]: 8 ± 1
Urinary cGMP Excretion [3, 12]: 8600 ± 1600 fmol/min
cardiovascular hemodynamic effects ([3]; chronic Sildenafil with acute SQ BNP in experimental overt CHF): without adverse cardiovascular hemodynamic effects
renal response to acute SQ BNP [3, 8]: enhanced

BNP: canine brain natriuretic peptide administered subcutaneously at 5 μg/kg (SPKMMHKSGCFGRRLDRIGSLSGLGCNVLRKY; ends and bridges not checked; cysteine pairing not given here; UniProt P16859 109-140, looked up)
plasma BNP levels with SQ BNP [4]: increased similarly
MAP [3, 13]: 110 ± 5
PAP [3, 13]: 25 ± 1
PCWP [3, 13]: 20 ± 1
Plasma Ang II [3, 13]: 73 ± 31
Plasma Renin [3, 13]: 20 ± 5
Plasma cGMP [3, 13]: 25 ± 3 pmol/mL
RAP [3, 13]: 6 ± 1
Urinary cGMP Excretion [3, 13]: 3580 ± 351 fmol/min
GFR change with SQ BNP [3, 14]: not observed
PTFNa change with SQ BNP [3, 14]: only trended to change
UNaV change with SQ BNP [3, 14]: only trended to change
CO with SQ BNP ([3]; untreated group, after SQ BNP alone): unchanged
